Experimental data taken from the NIST ThermoML archive (doi:10.1021/je9007553).
Several values for one entry are separate records, joined by “and”; a condition that tells them apart may be missing. Identical values can stand only once. ± gives the expanded uncertainty stated by the source.

Details: Crystal, Calculated from knudsen effusion weight loss

[Br][Al]([Br])[Br] [aluminum bromide]
vapor or sublimation pressure (301 K): 0.00013 ± 1e-05 kPa | vapor or sublimation pressure (303 K): 0.00018 ± 1e-05 kPa | vapor or sublimation pressure (306 K): 0.00024 ± 1e-05 kPa | vapor or sublimation pressure (307 K): 0.00035 ± 2e-05 kPa and 0.00034 ± 2e-05 kPa | vapor or sublimation pressure (309 K): 0.00043 ± 2e-05 kPa and 0.00035 ± 2e-05 kPa | vapor or sublimation pressure (310 K): 0.00045 ± 2e-05 kPa | vapor or sublimation pressure (312 K): 0.00049 ± 3e-05 kPa and 0.00056 ± 3e-05 kPa and 0.00046 ± 2e-05 kPa | vapor or sublimation pressure (312.5 K): 0.00054 ± 3e-05 kPa | vapor or sublimation pressure (314 K): 0.00062 ± 3e-05 kPa | vapor or sublimation pressure (314.5 K): 0.00071 ± 4e-05 kPa | vapor or sublimation pressure (315 K): 0.00072 ± 4e-05 kPa and 0.00068 ± 3e-05 kPa | vapor or sublimation pressure (315.5 K): 0.00085 ± 4e-05 kPa | vapor or sublimation pressure (316 K): 0.00071 ± 4e-05 kPa | vapor or sublimation pressure (316.5 K): 0.00089 ± 5e-05 kPa | vapor or sublimation pressure (317 K): 0.00095 ± 5e-05 kPa and 0.00083 ± 4e-05 kPa | vapor or sublimation pressure (317.5 K): 0.00089 ± 4e-05 kPa | vapor or sublimation pressure (318 K): 0.00089 ± 4e-05 kPa | vapor or sublimation pressure (318.5 K): 0.00107 ± 0.00011 kPa and 0.00102 ± 0.0001 kPa and 0.00112 ± 0.00011 kPa | vapor or sublimation pressure (320 K): 0.00107 ± 0.00011 kPa and 0.00123 ± 0.00013 kPa | vapor or sublimation pressure (320.5 K): 0.00123 ± 0.00013 kPa | vapor or sublimation pressure (321 K): 0.00135 ± 0.00014 kPa | vapor or sublimation pressure (321.5 K): 0.00141 ± 0.00015 kPa | vapor or sublimation pressure (323 K): 0.00166 ± 0.00018 kPa [middle of 4 runs] | vapor or sublimation pressure (324 K): 0.0017 ± 0.00019 kPa and 0.00178 ± 0.0002 kPa | vapor or sublimation pressure (324.5 K): 0.00191 ± 0.00022 kPa | vapor or sublimation pressure (325 K): 0.00209 ± 0.00024 kPa | vapor or sublimation pressure (326 K): 0.00204 ± 0.00024 kPa and 0.00214 ± 0.00025 kPa | vapor or sublimation pressure (327 K): 0.0024 ± 0.00029 kPa and 0.00282 ± 0.00035 kPa | vapor or sublimation pressure (327.5 K): 0.00234 ± 0.00028 kPa | vapor or sublimation pressure (328 K): 0.00269 ± 0.00033 kPa and 0.00251 ± 0.0003 kPa | vapor or sublimation pressure (330 K): 0.00363 ± 0.00046 kPa and 0.00324 ± 0.00041 kPa | vapor or sublimation pressure (330.5 K): 0.00309 ± 0.00038 kPa | vapor or sublimation pressure (331 K): 0.00389 ± 0.0005 kPa | vapor or sublimation pressure (332.5 K): 0.00468 ± 0.00062 kPa | vapor or sublimation pressure (333 K): 0.00457 ± 0.00061 kPa and 0.00398 ± 0.00052 kPa | vapor or sublimation pressure (333.5 K): 0.00437 ± 0.00058 kPa | vapor or sublimation pressure (335 K): 0.00575 ± 0.00079 kPa | vapor or sublimation pressure (336 K): 0.00575 ± 0.00079 kPa and 0.00617 ± 0.00086 kPa and 0.00562 ± 0.00077 kPa | vapor or sublimation pressure (337 K): 0.00724 ± 0.001 kPa | vapor or sublimation pressure (338 K): 0.00741 ± 0.0011 kPa and 0.00794 ± 0.0011 kPa | vapor or sublimation pressure (340 K): 0.00933 ± 0.0014 kPa and 0.00813 ± 0.0012 kPa | vapor or sublimation pressure (343 K): 0.01259 ± 0.0019 kPa | vapor or sublimation pressure (344 K): 0.01288 ± 0.002 kPa | vapor or sublimation pressure (345 K): 0.01479 ± 0.0023 kPa | vapor or sublimation pressure (348 K): 0.0195 ± 0.0032 kPa | vapor or sublimation pressure (351 K): 0.02512 ± 0.0043 kPa

[I][Al]([I])[I] [aluminum iodide]
vapor or sublimation pressure (359.5 K): 7e-05 ± 1e-05 kPa | vapor or sublimation pressure (361 K): 0.0001 ± 1e-05 kPa | vapor or sublimation pressure (364 K): 0.00014 ± 1e-05 kPa | vapor or sublimation pressure (365 K): 0.00019 ± 1e-05 kPa and 0.00014 ± 1e-05 kPa | vapor or sublimation pressure (366.5 K): 0.00017 ± 1e-05 kPa | vapor or sublimation pressure (367.5 K): 0.00019 ± 1e-05 kPa | vapor or sublimation pressure (368 K): 0.00019 ± 1e-05 kPa and 0.00025 ± 1e-05 kPa | vapor or sublimation pressure (368.5 K): 0.00025 ± 1e-05 kPa | vapor or sublimation pressure (369.5 K): 0.00025 ± 1e-05 kPa | vapor or sublimation pressure (371.5 K): 0.00027 ± 1e-05 kPa | vapor or sublimation pressure (372 K): 0.0003 ± 2e-05 kPa and 0.00034 ± 2e-05 kPa | vapor or sublimation pressure (372.5 K): 0.00034 ± 2e-05 kPa | vapor or sublimation pressure (374.5 K): 0.00049 ± 3e-05 kPa and 0.00039 ± 2e-05 kPa and 0.00036 ± 2e-05 kPa | vapor or sublimation pressure (375.5 K): 0.00044 ± 2e-05 kPa | vapor or sublimation pressure (376 K): 0.00042 ± 2e-05 kPa and 0.00049 ± 3e-05 kPa | vapor or sublimation pressure (377 K): 0.00059 ± 3e-05 kPa and 0.00049 ± 3e-05 kPa | vapor or sublimation pressure (378 K): 0.00054 ± 3e-05 kPa | vapor or sublimation pressure (378.5 K): 0.00059 ± 3e-05 kPa and 0.00063 ± 3e-05 kPa | vapor or sublimation pressure (380 K): 0.00068 ± 3e-05 kPa and 0.00071 ± 4e-05 kPa | vapor or sublimation pressure (380.5 K): 0.00083 ± 4e-05 kPa and 0.00078 ± 4e-05 kPa | vapor or sublimation pressure (381 K): 0.00078 ± 4e-05 kPa | vapor or sublimation pressure (382 K): 0.00083 ± 4e-05 kPa | vapor or sublimation pressure (383 K): 0.00093 ± 5e-05 kPa | vapor or sublimation pressure (383.5 K): 0.00087 ± 4e-05 kPa | vapor or sublimation pressure (385 K): 0.00126 ± 0.00013 kPa and 0.00102 ± 0.0001 kPa | vapor or sublimation pressure (385.5 K): 0.00112 ± 0.00011 kPa | vapor or sublimation pressure (387 K): 0.00135 ± 0.00014 kPa | vapor or sublimation pressure (388 K): 0.00135 ± 0.00014 kPa | vapor or sublimation pressure (389 K): 0.00186 ± 0.00021 kPa | vapor or sublimation pressure (390 K): 0.0017 ± 0.00019 kPa and 0.00182 ± 0.00021 kPa and 0.00174 ± 0.0002 kPa | vapor or sublimation pressure (391 K): 0.0017 ± 0.00019 kPa and 0.00209 ± 0.00024 kPa | vapor or sublimation pressure (393 K): 0.00245 ± 0.00029 kPa | vapor or sublimation pressure (393.5 K): 0.00214 ± 0.00025 kPa and 0.00234 ± 0.00028 kPa | vapor or sublimation pressure (394 K): 0.00257 ± 0.00031 kPa | vapor or sublimation pressure (395 K): 0.00251 ± 0.0003 kPa and 0.00282 ± 0.00035 kPa | vapor or sublimation pressure (396.5 K): 0.00295 ± 0.00036 kPa | vapor or sublimation pressure (397 K): 0.00324 ± 0.00041 kPa | vapor or sublimation pressure (397.5 K): 0.00363 ± 0.00046 kPa | vapor or sublimation pressure (398 K): 0.00347 ± 0.00044 kPa and 0.00339 ± 0.00043 kPa | vapor or sublimation pressure (399 K): 0.0038 ± 0.00049 kPa | vapor or sublimation pressure (399.5 K): 0.00407 ± 0.00053 kPa and 0.00417 ± 0.00055 kPa | vapor or sublimation pressure (400 K): 0.00417 ± 0.00055 kPa | vapor or sublimation pressure (401 K): 0.00437 ± 0.00058 kPa | vapor or sublimation pressure (402 K): 0.00537 ± 0.00073 kPa and 0.00501 ± 0.00068 kPa | vapor or sublimation pressure (403 K): 0.00525 ± 0.00071 kPa | vapor or sublimation pressure (403.5 K): 0.00562 ± 0.00077 kPa and 0.0055 ± 0.00075 kPa | vapor or sublimation pressure (404.5 K): 0.00562 ± 0.00077 kPa | vapor or sublimation pressure (405 K): 0.00603 ± 0.00084 kPa and 0.00661 ± 0.00093 kPa | vapor or sublimation pressure (406 K): 0.00759 ± 0.0011 kPa | vapor or sublimation pressure (407 K): 0.00759 ± 0.0011 kPa | vapor or sublimation pressure (408 K): 0.00776 ± 0.0011 kPa and 0.00794 ± 0.0011 kPa | vapor or sublimation pressure (408.5 K): 0.00871 ± 0.0013 kPa | vapor or sublimation pressure (409 K): 0.00933 ± 0.0014 kPa | vapor or sublimation pressure (409.5 K): 0.00832 ± 0.0012 kPa | vapor or sublimation pressure (411 K): 0.01047 ± 0.0016 kPa and 0.01023 ± 0.0015 kPa | vapor or sublimation pressure (412 K): 0.01175 ± 0.0018 kPa and 0.01096 ± 0.0017 kPa | vapor or sublimation pressure (413 K): 0.01288 ± 0.002 kPa and 0.01148 ± 0.0018 kPa | vapor or sublimation pressure (414.5 K): 0.01413 ± 0.0022 kPa | vapor or sublimation pressure (415 K): 0.01479 ± 0.0023 kPa and 0.01445 ± 0.0023 kPa | vapor or sublimation pressure (416 K): 0.01549 ± 0.0025 kPa and 0.01585 ± 0.0025 kPa | vapor or sublimation pressure (417 K): 0.0166 ± 0.0027 kPa | vapor or sublimation pressure (417.5 K): 0.0182 ± 0.003 kPa | vapor or sublimation pressure (419.5 K): 0.02188 ± 0.0037 kPa
